# Data reported in the OPERA property sets (Mansouri et al. 2018).
# Conditions: not given
row,SMILES,solubility [mM]
1,CC(=O)N=c1sc(S(N)(=O)=O)nn1C,14.8
2,CCOc1ccc(C(=O)OCCN(CC)CC)cc1,1.93
3,COC(=O)c1cc(O)c(O)c(O)c1,57.6
4,Cc1cc(C)c(N)cc1C,11.1
5,CCC[C@H]1CCCCN1,141
6,CC(C)(C)NC[C@H](O)COc1ccccc1C1CCCC1,24
7,Nc1ccc(-c2ccc(Cl)cc2)cc1,0.023
8,N[C@@H](C(=O)N[C@@H]1C(=O)N2C(C(=O)O)=C(Cl)CS[C@H]12)c1ccccc1,27.2
9,CC1CCC(C)O1 (centres undefined),1180
10,CCc1cccc(CC)c1N,4.49

# Same assay, conditions: 20 °C
row,SMILES,solubility [mM]
1,CN(C)C(=O)NC1CCCCCCC1,6.05
2,OCCCCl,2640
3,C[C@@H](CCl)[N+](=O)[O-],64.8
4,C#CC(C)N(C)C(=O)Nc1ccc(Cl)cc1 (centres undefined),0.127
5,O=C(O)c1ccccc1C(c1ccc(O)cc1)c1ccc(O)cc1,0.546
6,O=C(O)C1(O)c2ccccc2-c2ccc(Cl)cc21 (centres undefined),0.076
7,O=c1c(O)c(-c2ccc(O)cc2O)oc2cc(O)cc(O)c12,0.827
8,c1ccc2c(c1)ccc1c2ccc2c3ccccc3ccc21,1.55e-05
9,O=C(O)Cn1c(=O)sc2cccc(Cl)c21,2.46
10,Cc1cccc(N)c1,140
11,C=CCOC(=O)c1ccccc1C(=O)OCC=C,0.739
12,Clc1ccc(-c2cc(Cl)ccc2Cl)c(Cl)c1,0.000267
13,Nc1ccccc1C(=O)O,25.5
14,O=c1ccc2ccccc2o1,13
15,OCCN(CCO)c1ccccc1,184
16,OCCOc1ccccc1,193
17,CCOP(=S)(OCC)Oc1ccc(S(C)=O)cc1 (centres undefined),6.49

row,SMILES,solubility [mM]
1,CC(C)(O)C(Cl)(Cl)Cl,45.1
2,Clc1cccc(-c2c(Cl)cccc2Cl)c1,0.00015
3,CCC(Cl)[N+](=O)[O-] (centres undefined),64.8
4,COc1ccc2c(c1O)[C@]13CCN(C)[C@H](C2)[C@@H]1C=CC(=O)C3,13.4
5,O=C(O)c1cnc(O)nc1O,11.5
6,CCCCCCCC(=O)OC,0.407
7,O=C(O)C=Cc1ccco1,14.5
8,C=CC(=O)Oc1c(Br)cc(Cl)c2cccnc12,0.0192
9,COC(=O)C(C)N(C(=O)c1ccco1)c1c(C)cccc1C (centres undefined),0.763
10,Clc1ccc2c(c1)Oc1c(Cl)c(Cl)c(Cl)c(Cl)c1O2,3.37e-07
11,c1ncc2nc[nH]c2n1,4160
12,c1ccc2c(c1)cnc1ccccc12,1.67
13,CC(C)(S)[C@@H](N)C(=O)O,744
14,CCNc1nc(NC(C)CC)nc(OC)n1 (centres undefined),2.71
15,COc1ccc(Oc2ccc(NC(=O)N(C)C)cc2)cc1,0.0699
16,Clc1cc(Cl)c(-c2cccc(Cl)c2Cl)cc1Cl,8.7e-05

# Same assay, conditions: 22 °C
row,SMILES,solubility [mM]
1,CC(=O)c1ccc(O)cc1,72.7
2,CN(C)C(=O)N(C(=O)c1ccccc1)c1ccc(Cl)c(Cl)c1,0.0474
3,O=C(O)[C@@H](O)[C@H](O)[C@H](O)[C@@H](O)C(=O)O,229
4,CCOC(=O)C(=O)C(=O)OCC,3250
5,Cc1ccccc1Oc1cccnn1,10.7
6,COC(=O)NS(=O)(=O)c1ccc(N)cc1,21.7
7,OC[C@@H](O)[C@@H](O)CO,4990
8,C1CCN2C[C@@H]3C[C@@H](CN4CCCC[C@@H]34)[C@H]2C1,13
9,Cc1cc(=O)[nH]c(=O)[nH]1,55.5

# Same assay, conditions: 23 °C
row,SMILES,solubility [mM]
1,Nc1nc(N)[nH]c(=O)n1,0.59
2,Clc1ccccc1-c1cc(Cl)c(Cl)c(Cl)c1Cl,5.17e-05
3,CC(=O)Nc1cc(NS(=O)(=O)C(F)(F)F)c(C)cc1C,0.58

# Same assay, conditions: 24 °C
row,SMILES,solubility [mM]
1,CNCCCN1c2ccccc2CCc2ccccc21,0.22
2,CC(C)N(N=O)C(C)C,99.9
3,O=C1CN(N=Cc2ccc([N+](=O)[O-])o2)C(=O)N1,0.334

# Same assay, conditions: 25 °C
row,SMILES,solubility [mM]
1,O=C(O)c1ccccc1F,51.4
2,CC(C)(N)C(=O)O,1760
3,CC(=O)Nc1ccccc1,51.3
4,S=C=Nc1cccc(Br)c1,0.0822
5,Clc1cc(Cl)cc(Cl)c1,0.0331
6,CCCCCCCCCCCCCCCCCCCCCCCCCCCCCCCCCCCC,3.35e-06
7,C=C(c1ccccc1)c1ccccc1,0.0366
8,O=C1OCc2ccc([N+](=O)[O-])cc21,2.23
9,C=C(C)c1ccccc1,0.982
10,O=C(O)c1cccc(O)c1,52.5
11,Cc1cccc2sc3nncn3c12,8.45
12,Cc1ccc2cc(C)ccc2c1,0.0128
13,CC(=O)C(C)C,706
14,c1ccc2c(c1)Oc1ccccc1O2,0.00489
15,CCCCCCCCCC,0.000365
16,CC(=O)O[C@]1(C(C)=O)CC[C@H]2[C@@H]3C=C(Cl)C4=CC(=O)C=C[C@]4(C)[C@H]3CC[C@@]21C,0.0113
17,CCCCCBr,0.841
18,Fc1ccccc1Cl,3.84
19,CC(Oc1ccc(Cl)cc1)C(=O)O (centres undefined),7.33
20,C=CCCCCCC,0.0365
21,C[C@H]1c2cccc(O)c2C(=O)C2=C(O)[C@]3(O)C(=O)C(C(N)=O)=C(O)[C@@H](N(C)C)[C@@H]3[C@@H](O)[C@@H]21,1.42
22,CCC(N)C(=O)O (centres undefined),2050
23,Cc1ccc(C(=O)O)cc1,2.5

row,SMILES,solubility [mM]
1,S=C=Nc1cccc(Cl)c1,0.112
2,Clc1ccc(-c2ccccc2)c(Cl)c1,0.00515
3,Cc1ccccc1N1C(=O)c2cc(S(N)(=O)=O)c(Cl)cc2NC1C (centres undefined),0.165
4,COc1ccc(C(O)(c2cncnc2)C2CC2)cc1 (centres undefined),2.54
5,Fc1ccccc1CCl,2.88
6,c1ccc2cc3cc4ccccc4cc3cc2c1,6.61e-06
7,CC1CCC(C(C)C)C(O)C1 (centres undefined),2.91
8,S=C=NCc1ccccc1,0.73
9,Brc1ccc(Br)cc1,0.0848
10,N[C@@H](Cc1cnc[nH]1)C(=O)O,294
11,O=C1NC(=O)c2ccccc21,2.45
12,C=C[C@H]1CN2CCC1C[C@@H]2[C@@H](O)c1ccnc2ccccc12 (some centres undefined),0.744
13,CCCC(C(=O)O)C(=O)O,4790
14,NC(=O)CC[C@H](N)C(=O)O,283
15,O=C1CCCCC1,255
16,COc1ccc2c(c1OC)C(=O)O[C@@H]2[C@H]1c2c(cc3c(c2OC)OCO3)CCN1C,0.449
17,CCCC(C)CC (centres undefined),0.0494
18,CCCCCCCBr,0.0371
19,O=C(O)CCCCCCC(=O)O,67.9
20,O=C(O)COc1ccccc1Cl,6.86
21,CCCOC(C)C,46
22,Cc1c(C(=O)O)c(O)cc2c1C(=O)c1c(O)c([C@@H]3O[C@H](CO)[C@@H](O)[C@H](O)[C@H]3O)c(O)c(O)c1C2=O,2.64
23,CC(=O)CC(C)C,190

row,SMILES,solubility [mM]
1,CC1CCC(C)CC1 (centres undefined),0.0342
2,C=C(C)C,4.69
3,C=CC1CC=CCC1 (centres undefined),0.462
4,O=C=O,33.5
5,Oc1c2ccccc2cc2ccccc12,0.0185
6,CCOC(=O)c1ccccc1,4.79
7,C=Cc1ccccc1,2.98
8,C#CCCCCCC,0.218
9,CCOC(=O)C=Cc1ccccc1,1.01
10,CNC(=O)ON=C(C)SC,358
11,CC(=O)OCC(=O)[C@@]1(O)CC[C@H]2[C@@H]3CCC4=CC(=O)CC[C@]4(C)[C@H]3C(=O)C[C@@]21C,0.0497
12,CC#CCCCC,1.7
13,ClC(Cl)=C(c1ccc(Cl)cc1)c1ccccc1Cl,0.00044
14,CC/C(=C(/CC)c1ccc(O)cc1)c1ccc(O)cc1,0.0447
15,Cc1ccc2ccc(C)nc2c1,11.4
16,CC1(C)[C@H](C(=O)O)CC[C@]1(C)C(=O)O,38
17,OC(c1ccccc1)c1ccccc1,2.82
18,Cc1c2ccccc2cc2ccccc12,0.00136
19,Nc1ccc(S(=O)(=O)Nc2ncccn2)cc1,0.308
20,C=CC#N,1400
21,O=C(O)c1cc(I)cc(I)c1O,0.493
22,C=CCC1(C(C)C)C(=O)NC(=O)NC1=O,19.4
23,CCCCC(C)O (centres undefined),134

row,SMILES,solubility [mM]
1,O=C(O)c1ccnc(C(=O)O)c1,14.9
2,CCCOP(=O)(OCCC)Oc1ccc(SC)cc1,0.411
3,CC(C)C(O)C(C)C,60.2
4,CCC(C)c1cc([N+](=O)[O-])cc([N+](=O)[O-])c1OC(C)=O (centres undefined),7.79
5,Cc1cccc2c1ccc1ccccc12,0.0014
6,C1CCC2CCCCC2C1 (centres undefined),0.00643
7,FC1(F)C(F)(F)C(F)(F)C1(F)F,0.165
8,C[C@@H]1CC[C@@]2(OC1)O[C@H]1C[C@H]3[C@@H]4CC=C5C[C@@H](O)CC[C@]5(C)[C@H]4CC[C@]3(C)[C@H]1[C@@H]2C,4.82e-05
9,CC(C)CCOC(=O)c1ccccc1O,0.696
10,Nc1cc[nH]c(=O)n1,72
11,COc1ccc2c(c1OC)C(=O)OC2,12.9
12,O=C(O)c1cccnc1Nc1cccc(C(F)(F)F)c1,0.0673
13,Cc1ccc(C)c2c(C)cccc12,0.0123
14,CCCCC1(CC)C(=O)NC(=O)NC1=O,23
15,CN1CC(O)N(c2nnc(C(C)(C)C)s2)C1=O (centres undefined),13.3
16,O=C(O)c1ccc([N+](=O)[O-])c([N+](=O)[O-])c1,31.6
17,Cc1c(N)c(=O)n(-c2ccccc2)n1C,3580
18,CCC(C)(C)c1ccc(O)cc1,1.02
19,Clc1ccc(Cl)c(-c2c(Cl)ccc(Cl)c2Cl)c1Cl,1.25e-05
20,Clc1ccc(Br)cc1,0.235
21,CCC(CC)CO,39.1
22,c1cc2ccc3ccc4ccc5cccc6c(c1)c2c3c4c56,9.41e-07
23,CC(C)C(=O)C(C)C,49.9

# Same assay, conditions: 28 °C
row,SMILES,solubility [mM]
1,O=C(O)CCCC(=O)O,12100

# Same assay, conditions: 30 °C
row,SMILES,solubility [mM]
1,CCN(CC)CCOC(=O)c1ccc(N)cc1,40
2,CCCCC1C(=O)N(c2ccccc2)N(c2ccc(O)cc2)C1=O (centres undefined),0.185
3,COP1(=S)OCc2ccccc2O1 (centres undefined),0.268
4,Cc1c(N(C)C)c(=O)n(-c2ccccc2)n1C,235
5,CN1c2ccccc2Sc2ccc(CC(=O)O)cc21,0.114
6,COc1ccc2ccc(=O)oc2c1CC=C(C)C,0.0491
7,Cc1cccc(Nc2ccccc2C(=O)O)c1C,0.0829
8,NCCCCCCCCCCC(=O)O,4.97
